Patent publication US20230134986A1, “GLUCOSE TRIPTOLIDE CONJUGATES AND USES THEREOF” (The Johns Hopkins University, priority 2020, published 2023)

Legend:
PC3 = experiment: XTT viability assay, PC3; type: cell-based; details: Homo sapiens, PC-3, Prostate Cancer
Source text: Cells and culture conditions. Primary astrocytes (Lonza, Walkersville, Md.; ABM™ Basal Media with AGM™ SingleQuots™ Supplement Pack), fibroblast (ATCC; Fibroblast Basal Medium (ATCC© PCS-201-030™) with Fibroblast Growth Kit-Serum-free (ATCC© PCS-201-040™)), airway epithelial cell (ATCC; Airway Epithelial Cell Basal Medium (ATCC© PCS-300-030™) with Bronchial Epithelial Cell Growth Kit (ATCC© PCS-300-040™)), renal proximal tubule (ATCC; Renal Epithelial Cell Basal Medium (ATCC© PCS-400-030™) with Renal Epithelial Cell Growth Kit (ATCC© PCS-400-040™)), prostate epithelial cell (Lonza; PrEGM™ BulletKit™) and mammary epithelial cell (Lonza; MEBM™ BulletKit™) were kept in a humidified incubator at 37° C. adjusted to 5% CO2. […]
XTT assay. […] Cell viability was measured using the R&D Systemsm TACS XTT Cell Proliferation/Viability Assay (R&D Systems, Minneapolis, Minn.).

[1] = tested on: RPB1 (catalytic subunit of RNAPII); experiment: RPB1 (RNAPII) degradation in HeLa cells, immunostaining and western blot; type: cell-based, human; set-up: endogenous RNAPII (RPB1) level: unit of the concentration uncertain; details: 1 (unit uncertain) compound 1, 24 h
Protocol: Western blot analysis. Whole cell lysates were prepared by adding lysis buffer [4% SDS, 20% glycerol, 10% 2-mercaptoethanol, 0.004% bromophenol blue, 0.125 M Tris-HCl (pH 6.8)] to the cell pellets for 30 minutes in ice followed by centrifugation at 12,000×g for 10 minutes then boiling for 5 minutes. For isolation of cytosolic and mitochondrial fractions of cytochrome C, cell pellets were resuspended in CLAMI buffer (250 mM sucrose, 70 mM KCl, […] digitonin in 1×PBS, protease inhibitor cocktail (1 tablet/10 ml CLAMI buffer)) then incubated on ice for 5 minutes. After centrifugation at 12,000×g for 5 minutes at 4° C., supernatant (cytoplasmic fraction) was collected and the pellet resuspended in lysis buffer as described above. Proteins were then separated by SDS-PAGE and transferred to nitrocellulose membranes (Bio-Rad). After blocking at room temperature for 1 h, membranes were incubated at 4′C overnight with the primary antibodies including anti-Rpb1 (Santa Cruz Biotechnology), anti-XPB (Biotechne), anti-Actin (Developmental Studies Hybridoma Bank), anti-GAPDH (Santa Cruz Biotechnology), anti-cytochrome C (Santa Cruz Biotechnology), anti-PARP1 (Santa Cruz Biotechnology), anti-cleaved caspase 3 (Cell Signaling Technology), anti-VDAC (ProteinTech), anti-HIF-1[…] (BD sciences), and anti-GLUT1 (Santa Cruz Biotechnology) antibodies followed by incubation with horseradish peroxidase-conjugated anti-mouse or anti-rabbit IgG (GE Healthcare) at room temperature for 2 hours. Antibody-protein complexes were detected using enhanced chemiluminescence (ECL) immunoblotting detection reagent (EMD Millipore).
Immunocytochemistry and cytochemistry. […] Glucose uptake was monitored by incubating cells in 200 μM 2-NBDG (ThermoFisher) for 6 hours prior to fixation. Fluorescence was observed under the Nikon Eclipse TE200 Inverted microscope (Nikon Instruments Inc., Melville, N.Y., USA). […] Rpb1 levels were measured using the MEASURE feature of ImageJ where all the background signals were subtracted from the intergrated density of nuclear Rpb1.

| Structure (SMILES) | IC50 (PC3) [nM] | endogenous RNAPII (RPB1) level [1] |
| --- | --- | --- |
| CC(C)[C@]12O[C@H]1[C@@H]1O[C@]13[C@]1(O[C@H]1C[C@H]1C4=C(CC[C@@]13C)C(=O)OC4)[C@@H]2OC(=O)CCC(=O)O[C@@H]1OC(CO)[C@@H](O)C(O)C1O (some centres unmarked) [Compound 10] | 500 ± 100 |  |
| CC(C)[C@]12O[C@H]1[C@@H]1O[C@]13[C@]1(O[C@H]1C[C@H]1C4=C(CC[C@@]13C)C(=O)OC4)[C@@H]2OC(=O)CCCO[C@@H]1OC(CO)[C@@H](O)C(O)C1O (stereo in doubt) [Compound 1] |  | depletes endogenous RNA polymerase II |
